This passage reports IC50 results from patent US9732075B2, “Benzimidazole-proline derivatives” (IDORSIA PHARMACEUTICALS LTD, priority 2012, dated 2017).

pIC50: −log10 of the molar value.

Experiment [1] addresses human orexin-1 receptor (Homo sapiens (Human), UniProt O43613). The experiment in a line: In vitro assay: intracellular calcium measurements (FLIPR), antagonistic activity. Format: cell-based. The note with it: CHO cells expressing human orexin-1 receptor, orexin-A agonist, geometric mean, read-out: IC50 Ox1. In outline: (§1)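 Dye-loaded CHO cells expressing either human orexin receptor are exposed to test antagonist for 120 min, then stimulated with orexin-A at 3 nM.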
Background: Calcium assays in cells follow changes in intracellular calcium, usually with a dye or a luminescent sensor.

Experiment [2] addresses human orexin-2 receptor (Homo sapiens (Human), UniProt O43614). The experiment is described as above. The note with it: CHO cells expressing human orexin-2 receptor, orexin-A agonist, geometric mean, read-out: IC50 Ox2. It counts as cell-based. The method, boiled down: as §1

Chain of human orexin-2 receptor (O43614 whole entry): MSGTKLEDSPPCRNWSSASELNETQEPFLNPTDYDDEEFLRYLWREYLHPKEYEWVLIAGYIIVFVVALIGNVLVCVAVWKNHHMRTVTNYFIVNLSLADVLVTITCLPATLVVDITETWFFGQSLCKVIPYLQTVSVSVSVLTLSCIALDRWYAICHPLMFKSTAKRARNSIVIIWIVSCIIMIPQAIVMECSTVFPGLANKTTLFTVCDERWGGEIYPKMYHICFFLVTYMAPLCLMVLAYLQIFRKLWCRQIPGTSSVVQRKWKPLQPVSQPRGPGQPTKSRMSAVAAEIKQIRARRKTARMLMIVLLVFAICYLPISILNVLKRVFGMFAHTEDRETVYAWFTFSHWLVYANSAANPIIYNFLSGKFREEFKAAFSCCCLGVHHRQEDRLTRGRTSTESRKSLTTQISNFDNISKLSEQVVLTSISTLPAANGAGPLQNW
Chain of human orexin-1 receptor (O43613 whole entry): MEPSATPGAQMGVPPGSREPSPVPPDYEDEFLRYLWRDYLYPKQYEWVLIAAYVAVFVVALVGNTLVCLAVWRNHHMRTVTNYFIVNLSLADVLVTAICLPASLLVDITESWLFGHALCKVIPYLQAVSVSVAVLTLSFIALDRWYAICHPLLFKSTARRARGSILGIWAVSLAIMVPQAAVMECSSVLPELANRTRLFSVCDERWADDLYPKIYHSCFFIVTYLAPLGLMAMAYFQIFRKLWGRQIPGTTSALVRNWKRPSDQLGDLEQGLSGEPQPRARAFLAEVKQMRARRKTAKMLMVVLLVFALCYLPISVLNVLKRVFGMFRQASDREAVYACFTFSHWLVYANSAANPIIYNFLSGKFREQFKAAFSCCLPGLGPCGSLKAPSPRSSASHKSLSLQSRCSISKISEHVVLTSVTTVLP

Take `Cc1ccccc1-c1nc(C(=O)N2CCC[C@@]2(C)c2nc3c(C)c(Cl)ccc3[nH]2)c(-c2ccc(F)cc2)s1` [Ex. 5.228]: the pIC50 in experiment [1] is 7.25; in experiment [2] it was 5.69.

For the molecule `COc1ccccc1-c1nc(C(=O)N2CCC[C@@]2(C)c2nc3c(C)c(Cl)ccc3[nH]2)c(-c2ccc(F)cc2)s1` [Ex. 5.229], the pIC50 is 7.27 in experiment [1] and 6.07 in experiment [2].

On to `Cc1cccc(-c2nc(C(=O)N3CCC[C@@]3(C)c3nc4c(C)c(Cl)ccc4[nH]3)c(-c3ccc(F)cc3)s2)c1` [Ex. 5.230], for which the pIC50 in experiment [1] was 7.68; in experiment [2] it was 6.28.

Take `COc1cccc(-c2nc(C(=O)N3CCC[C@@]3(C)c3nc4ccc(Cl)c(C)c4[nH]3)c(-c3ccc(F)cc3)s2)c1` [Ex. 5.231]: the results for the pIC50 in experiment [1] and in experiment [2] were 7.82 and 6.87, respectively.

As for `Cc1ccc(-c2nc(C(=O)N3CCC[C@@]3(C)c3nc4c(C)c(Cl)ccc4[nH]3)c(-c3ccc(F)cc3)s2)cc1` [Ex. 5.232], the pIC50 in experiment [1] was 7.70; in experiment [2] it was 5.69.

Take `Cc1c(Cl)ccc2[nH]c([C@]3(C)CCCN3C(=O)c3nc(-c4ccccc4F)sc3-c3ccc(F)cc3)nc12` [Ex. 5.233]: the figures for the pIC50 in experiment [1] and in experiment [2] were 8.30 and 6.58, respectively.

On to `Cc1c(Cl)ccc2[nH]c([C@]3(C)CCCN3C(=O)c3nc(-c4cccc(F)c4)sc3-c3ccc(F)cc3)nc12` [Ex. 5.234], for which the pIC50 in experiment [1] is 8.10; in experiment [2] it was 6.88.

As for `Cc1cc(C(=O)N2CCC[C@@]2(C)c2nc3cc(OC(F)(F)F)ccc3[nH]2)c(-n2nccn2)cc1C` [Ex. 5.235], the pIC50 in experiment [1] was 8.30; in experiment [2], 7.78.

Regarding `Cc1ccc(-c2ccccc2)c(C(=O)N2CCC[C@@]2(C)c2nc3cc(OC(F)(F)F)ccc3[nH]2)c1` [Ex. 5.236], the values for the pIC50 in experiment [1] and in experiment [2] were 7.59 and 6.76, respectively.

Take `COc1ccc(-n2nccn2)c(C(=O)N2CCC[C@@]2(C)c2nc3cc(OC(F)(F)F)ccc3[nH]2)c1` [Ex. 5.237]: the pIC50 in experiment [1] was 7.24; in experiment [2], 6.65.

Take `Cc1ccc(C(=O)N2CCC[C@@]2(C)c2nc3cc(OC(F)(F)F)ccc3[nH]2)c(-n2nccn2)c1` [Ex. 5.238]: the pIC50 in experiment [1] is 7.64; in experiment [2] it was 7.04.

Regarding `Cc1ccc(-c2ccccn2)c(C(=O)N2CCC[C@@]2(C)c2nc3cc(OC(F)(F)F)ccc3[nH]2)c1` [Ex. 5.239], the pIC50 in experiment [1] is 7.46; in experiment [2], 6.23.

For `Cc1ccc(C(=O)N2CCC[C@@]2(C)c2nc3cc(OC(F)(F)F)ccc3[nH]2)c(-c2ccccn2)c1` [Ex. 5.240], the pIC50 was 7.42 in experiment [1] and 6.63 in experiment [2].

Regarding `Cc1ccc(C(=O)N2CCC[C@@]2(C)c2nc3cc(OC(F)(F)F)ccc3[nH]2)c(-c2cccnc2)c1` [Ex. 5.241], the figures for the pIC50 in experiment [1] and in experiment [2] were 7.27 and 6.00, respectively.

As for `Cc1ccc(C(=O)N2CCC[C@@]2(C)c2nc3cc(OC(F)(F)F)ccc3[nH]2)c(-c2ccccc2)c1` [Ex. 5.242], the pIC50 was 7.25 in experiment [1] and 6.40 in experiment [2].

In the case of `Cc1nc(C(=O)N2CCC[C@@]2(C)c2nc3cc(OC(F)(F)F)ccc3[nH]2)c(-c2ccccc2C)s1` [Ex. 5.243], the pIC50 in experiment [1] was 7.06; in experiment [2] it was 5.95.

Turning to `Cc1nc(C(=O)N2CCC[C@@]2(C)c2nc3cc(OC(F)(F)F)ccc3[nH]2)c(-c2cccc(Cl)c2Cl)s1` [Ex. 5.244], the results for the pIC50 in experiment [1] and in experiment [2] were 7.21 and 6.19, respectively.

Regarding `Cc1nc(C(=O)N2CCC[C@@]2(C)c2nc3cc(OC(F)(F)F)ccc3[nH]2)c(-c2ccc(C)c(C)c2)s1` [Ex. 5.245], the pIC50 in experiment [1] was 7.85; in experiment [2], 7.10.

In the case of `Cc1nc(C(=O)N2CCC[C@@]2(C)c2nc3cc(OC(F)(F)F)ccc3[nH]2)c(-c2cc(F)cc(F)c2)s1` [Ex. 5.246], the figures for the pIC50 in experiment [1] and in experiment [2] were 7.55 and 6.27, respectively.

Regarding `COc1cccc(-c2sc(C)nc2C(=O)N2CCC[C@@]2(C)c2nc3cc(OC(F)(F)F)ccc3[nH]2)c1` [Ex. 5.247], the pIC50 in experiment [1] is 8.00; in experiment [2], 6.87.

As for `Cc1nc(C(=O)N2CCC[C@@]2(C)c2nc3cc(OC(F)(F)F)ccc3[nH]2)c(-c2ccc(F)cc2)s1` [Ex. 5.248], the pIC50 in experiment [1] is 7.66; in experiment [2], 6.31.

With `COc1cccc(C#Cc2ccccc2C(=O)N2CCC[C@@]2(C)c2nc3c(C)cc(Br)cc3[nH]2)c1` [Ex. 5.249], the figures for the pIC50 in experiment [1] and in experiment [2] were 7.42 and 7.28, respectively.

For the molecule `COc1cccc(C#Cc2ccccc2C(=O)N2CCC[C@@]2(C)c2nc3cc(C(F)(F)F)ccc3[nH]2)c1` [Ex. 5.250], the pIC50 was 6.74 in experiment [1] and 6.00 in experiment [2].

Consider `Cc1c(Cl)ccc2[nH]c([C@]3(C)CCCN3C(=O)c3nc(-c4cccc(F)c4F)sc3-c3ccc(F)cc3)nc12` [Ex. 5.251], for which the pIC50 in experiment [1] was 7.89; in experiment [2] it was 6.11.

Regarding `Cc1cc(-c2nc(C(=O)N3CCC[C@@]3(C)c3nc4c(C)c(Cl)ccc4[nH]3)c(-c3ccc(F)cc3)s2)ccc1F` [Ex. 5.252], the figures for the pIC50 in experiment [1] and in experiment [2] were 7.70 and 5.79, respectively.

As to `Cc1ccc(-c2nc(C(=O)N3CCC[C@@]3(C)c3nc4c(C)c(Cl)ccc4[nH]3)c(-c3ccc(F)cc3)s2)c(F)c1` [Ex. 5.253], the pIC50 in experiment [1] was 7.92; in experiment [2] it was 5.93.

Turning to `Cc1ccc(-c2nc(C(=O)N3CCC[C@@]3(C)c3nc4c(C)c(Cl)ccc4[nH]3)c(-c3ccc(F)cc3)s2)cc1C` [Ex. 5.254], the pIC50 in experiment [1] is 7.41; in experiment [2], 5.03.

As for `Cc1c(Cl)ccc2[nH]c([C@]3(C)CCCN3C(=O)c3nc(-c4cccc(C#N)c4)sc3-c3ccc(F)cc3)nc12` [Ex. 5.255], the results for the negative logarithm of the IC50 (pIC50) in experiment [1] and in experiment [2] were 9.00 and 6.84, respectively.

As for `Cc1c(Cl)ccc2[nH]c([C@]3(C)CCCN3C(=O)c3nc(-c4ccccc4Cl)sc3-c3ccc(F)cc3)nc12` [Ex. 5.256], the results for the pIC50 in experiment [1] and in experiment [2] were 7.89 and 6.40, respectively.

Turning to `Cc1c(Cl)ccc2[nH]c([C@]3(C)CCCN3C(=O)c3nc(-c4cccc(Cl)c4)sc3-c3ccc(F)cc3)nc12` [Ex. 5.257], the results for the pIC50 in experiment [1] and in experiment [2] were 7.89 and 6.48, respectively.

For `Cc1ccc(-c2nc(C(=O)N3CCC[C@@]3(C)c3nc4c(C)c(Cl)ccc4[nH]3)c(-c3ccc(F)cc3)s2)cc1Cl` [Ex. 5.258], the pIC50 in experiment [1] is 7.44; in experiment [2] it was 5.19.

With `Cc1cc(F)ccc1-c1nc(C(=O)N2CCC[C@@]2(C)c2nc3c(C)c(Cl)ccc3[nH]2)c(-c2ccc(F)cc2)s1` [Ex. 5.259], the pIC50 in experiment [1] is 7.54; in experiment [2], 5.33.

Regarding `COc1cc(F)ccc1-c1nc(C(=O)N2CCC[C@@]2(C)c2nc3c(C)c(Cl)ccc3[nH]2)c(-c2ccc(F)cc2)s1` [Ex. 5.260], the pIC50 in experiment [1] was 7.70; in experiment [2] it was 5.54.

Consider `Cc1c(Cl)ccc2[nH]c([C@]3(C)CCCN3C(=O)c3nc(-c4cc(F)ccc4F)sc3-c3ccc(F)cc3)nc12` [Ex. 5.261], for which the pIC50 is 8.40 in experiment [1] and 6.33 in experiment [2].

For `C[C@@]1(c2nc3cc(C(F)(F)F)ccc3[nH]2)CCCN1C(=O)c1cc(Br)ccc1-c1ccccc1` [Ex. 5.262], the pIC50 in experiment [1] is 6.95; in experiment [2], 9.00.

Take `Cc1cc(C(=O)N2CCC[C@@]2(C)c2nc3c(C)c(Cl)ccc3[nH]2)c(-n2nccn2)cn1` [Ex. 5.263]: the pIC50 was 7.25 in experiment [1] and 6.52 in experiment [2].

`Cc1cc(C(=O)N2CCC[C@@]2(C)c2nc3c(C)c(Cl)ccc3[nH]2)c(-c2ccccc2)cn1` [Ex. 5.264]: the negative-log IC50 (pIC50) in experiment [1] was 7.60; in experiment [2], 7.19.

`C[C@@]1(c2nc3cc(C(F)(F)F)ccc3[nH]2)CCCN1C(=O)c1cc(-c2cccnc2)ccc1-c1ccccc1` [Ex. 5.265]: the figures for the pIC50 in experiment [1] and in experiment [2] were 8.05 and 7.49, respectively.

`Cc1ccc(-n2nccn2)c(C(=O)N2CCC[C@@]2(C)c2nc3c(C)c(C)c(Br)cc3[nH]2)c1` [Ex. 5.266]: the pIC50 in experiment [1] and in experiment [2] was 9.00 each time.

`Cc1ccc(C(=O)N2CCC[C@@]2(C)c2nc3c(C)c(C)c(Br)cc3[nH]2)c(-n2nccn2)c1C` [Ex. 5.267]: the values for the pIC50 in experiment [1] and in experiment [2] were 7.92 and 6.98, respectively.

For the molecule `Cc1c(Br)cc2[nH]c([C@]3(C)CCCN3C(=O)c3ccccc3-c3ccccc3)nc2c1C` [Ex. 5.269], the pIC50 in experiment [1] was 7.82; in experiment [2], 7.66.

Regarding `Cc1ccc(-c2ccccc2)c(C(=O)N2CCC[C@@]2(C)c2nc3c(C)c(C)c(Br)cc3[nH]2)c1` [Ex. 5.270], the pIC50 in experiment [1] is 8.15; in experiment [2] it was 8.05.

For the molecule `Cc1nc(C(=O)N2CCC[C@@]2(C)c2nc3c(C)c(C)c(Br)cc3[nH]2)c(-c2ccccc2C)s1` [Ex. 5.271], the negative logarithm of the IC50 (pIC50) was 8.30 in experiment [1] and 8.22 in experiment [2].

Turning to `Cc1nc(C(=O)N2CCC[C@@]2(C)c2nc3c(C)c(C)c(Br)cc3[nH]2)c(-c2cccc(Cl)c2Cl)s1` [Ex. 5.272], the values for the pIC50 in experiment [1] and in experiment [2] were 8.10 and 7.92, respectively.

For the molecule `Cc1nc(C(=O)N2CCC[C@@]2(C)c2nc3c(C)c(C)c(Br)cc3[nH]2)c(-c2ccc(C)c(C)c2)s1` [Ex. 5.273], the figures for the pIC50 in experiment [1] and in experiment [2] were 8.15 and 7.92, respectively.

In the case of `COc1cccc(-c2sc(C)nc2C(=O)N2CCC[C@@]2(C)c2nc3c(C)c(C)c(Br)cc3[nH]2)c1` [Ex. 5.275], the pIC50 in experiment [1] was 8.30; in experiment [2] it was 8.22.

As to `Cc1nc(C(=O)N2CCC[C@@]2(C)c2nc3c(C)c(C)c(Br)cc3[nH]2)c(-c2ccc(F)cc2)s1` [Ex. 5.276], the pIC50 in experiment [1] is 8.52; in experiment [2] it was 8.10.

For the molecule `Cc1ccc(-c2ncccn2)c(C(=O)N2CCC[C@@]2(C)c2nc3cccc(C)c3[nH]2)c1` [Ex. 5.278], the pIC50 in experiment [1] is 7.66; in experiment [2], 7.51.

On to `COc1cc2nc([C@]3(C)CCCN3C(=O)c3cc(C)ccc3-c3ncccn3)[nH]c2cc1OC` [Ex. 5.280], for which the negative-log IC50 (pIC50) in experiment [1] is 7.44; in experiment [2] it was 7.80.

As usually defined, the pIC50 is the negative decadic logarithm of the IC50, by convention in mol/L.
